The values that follow come from patent US11529359B2, “Use of GABAA receptor modulators for treatment of itch” (UNIVERSITÄT ZÜRICH, priority 2016, dated 2022).

Series [1] concerns α5GABAARs. The series is described as follows: GABA-evoked currents, recombinant GABAARs in HEK293 cells (α5). The format is cell-based. The following applies: HEK293 cells transiently transfected. The text has this: (§1) HEK293 cells were transfected using lipofectamine LTX (Dugue, G. P., et al. Neuron, 2009, 61, 126-139). To ensure expression of the γ2 subunit (required for modulation of GABAARs by BDZs) in all recorded cells, the inventors transfected cells with a plasmid expressing the γ2 subunit plus eGFP from an IRES, and only selected eGFP-positive cells for recordings. The transfection mixture contained (in μg): 1 α1, 1 β2, 3 γ2/eGFP (used as a marker of successful transfection) or 1 αx, 1 β3, 3 γ2/eGFP in case of α2, α3, or α5GABAARs. Recordings were made 18-36 hrs after transfection. Whole-cell patch-clamp recordings of GABA-evoked currents were made at room temperature (20-24° C.) and at a holding potential of −60 mV. Recording electrodes were filled with solution containing (in mM): 120 CsCl, 10 EGTA, 10 HEPES (pH 7.40), 4 MgCl2, 0.5 GTP and 2 ATP. The external solution contained (in mM): 150 NaCl, 10 KCl, 2.0 CaCl2, 1.0 MgCl2, 10 HEPES (pH 7.4), and 10 glucose. GABA was applied to the recorded cell using a manually controlled pulse (4-6 s) of a low sub-saturating GABA concentration (ECS). ECs values of GABA were determined for all subunit combinations analyzed. […] Imax was determined as the average maximal current elicited by a concentration of 1 mM GABA. […]

The subject of series [2] is motor coordination. Put plainly: rotarod assay (motor coordination). The format is in vivo, mice. Conditions: p.o., 60 min after administration. On the procedure:
Locomotor activity, muscle relaxant effects and motor coordination were assessed as described previously (Ralvenius, W. T., Benke, D., Acuña, M. A., Rudolph, U. & Zeilhofer, H. U. Nature Communications, 2015, 6). […] Motor coordination was assessed with a rotarod accelerating from 4 rpm to 40 rpm within 5 min. […] Fifteen measurements were taken per mouse. To assess muscle relaxation, mice were placed with their forepaws onto a metal horizontal wire placed 20 cm above ground.
On the technique in general: In the rotarod test animals must keep their balance on a rotating rod.

Series [3] relates to GABA-IPSCs in GRP neurons. Put plainly: GABAergic IPSCs in GRP neurons, whole-cell recordings in spinal cord slices. In kind it is cell-based, GRP::eGFP mice. Conditions: 1 μM; n=7. On the procedure: Transverse spinal cord slices ([…]) were prepared from 20 to 29-day old GRP::eGFP mice of either sex as described previously (Dugue, G. P., et al. Neuron, 2009, 61, 126-139). Whole-cell patch clamp recordings were made at room temperature targeting eGFP positive neurons. During recordings, slices were continuously superfused at the rate of 1-2 ml/min with aSCF containing (in mM): 120 NaCl, 2.5 KCl, 1.25 NaH2PO4, 26 […], 5 HEPES, 1 MgCl2, 2 CaCl2) and 14.6 glucose (pH 7.4), equilibrated with 95% O2, 5% CO2. Recorded neurons were voltage clamped at −70 mV using an EPC 9 amplifier (HEKA Elektronic, Lambrecht, Germany) controlled with Patchmaster acquisition software. […] IPSCs were evoked by electrical stimulation (300 μs, 0.2-50 V) at 0.05 Hz using glass electrode filled with aCSF and placed 50-100 μm from the soma of the recorded cell. […] At the end of the recordings bicuculline (10 μM) was added to confirm the GABAergic nature of the recorded IPCSs. The weighted decay time constant (τw) was calculated from dual-exponential fits using the following equation: Tw=(τ1A1+τ2A2)/(A1+A2) where τ1 and τ2 are the fast and the slow decay time constants and A1 and A2 are the equivalent amplitude weighting factors (Labrakakis, C., Lorenzo, L. E., Bories, C., Ribeiro-da-Silva, A. & De Koninck, Y Mol Pain, 2009, 5, 24). […]

For series [4], the target named is T1, α2β3γ2 GABAARs (Homo sapiens, UniProt P18507+P47869).
T1 construct: expressed in transfected cells; host or cells: HEK293 cells (ATCC), transient transfection
The series is described as follows: GABA-evoked currents, recombinant GABAARs in HEK293 cells (α2). The format is cell-based. The following applies: HEK293 cells transiently transfected.
Text: as §1

The test system of series [5] is contact dermatitis-induced chronic itch. Put plainly: oxazolone contact dermatitis model of chronic itch in wild-type mice. The format is in vivo, wild-type C57BL6/J mice. On the procedure:
Thus, TPA023B is, in accordance with the other findings of the inventors, suitable as an antipruritic substance.
This was independent of the treatment they received from day 7 to day 27.
The inventors sought to confirm the antipruritic efficacy of α2 and α3 GABAA receptor agonists against contact dermatitis-induced chronic itch. To this end, N-desmethyl clobazam, a benzodiazepine with improved activity at α2 versus α1 was assessed for its antipruritic effects (Jensen et al. PLoS One. 2014 Feb. 12; 9(2):e88456.).
Chronic itch was investigated in the contact dermatitis model (Kido-Nakahara, M., et al. J Clin Invest, 2014, 124, 2683-2695). Mice were treated once with 10% oxazolone in acetone/olive oil (4:1 v/v) on the shaved nape of the neck (100 μl) on day 0. After a resting period of 7 days, mice were treated with 1% oxazolone in acetone/olive oil (4:1 v/v) on the nape of the neck (100 μl) every other day for 10 days. On the day of the experiment, mice were injected with drug or vehicle i.p. under short and light isoflurane anesthesia. […]

T1 sequence (P47869 29-451): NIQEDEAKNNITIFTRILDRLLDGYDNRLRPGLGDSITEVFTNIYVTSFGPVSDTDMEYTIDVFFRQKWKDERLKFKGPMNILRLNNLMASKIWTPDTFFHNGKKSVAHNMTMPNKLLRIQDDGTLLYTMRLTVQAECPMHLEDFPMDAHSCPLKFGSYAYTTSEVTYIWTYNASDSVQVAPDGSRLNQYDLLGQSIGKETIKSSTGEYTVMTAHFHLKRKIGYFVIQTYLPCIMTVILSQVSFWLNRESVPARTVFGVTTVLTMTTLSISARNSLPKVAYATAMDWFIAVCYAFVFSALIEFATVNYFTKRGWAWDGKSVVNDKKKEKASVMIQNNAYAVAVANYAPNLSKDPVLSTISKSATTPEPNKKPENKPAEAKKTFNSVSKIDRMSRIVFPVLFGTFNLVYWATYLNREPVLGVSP
T1 sequence (P28472 26-473 partner): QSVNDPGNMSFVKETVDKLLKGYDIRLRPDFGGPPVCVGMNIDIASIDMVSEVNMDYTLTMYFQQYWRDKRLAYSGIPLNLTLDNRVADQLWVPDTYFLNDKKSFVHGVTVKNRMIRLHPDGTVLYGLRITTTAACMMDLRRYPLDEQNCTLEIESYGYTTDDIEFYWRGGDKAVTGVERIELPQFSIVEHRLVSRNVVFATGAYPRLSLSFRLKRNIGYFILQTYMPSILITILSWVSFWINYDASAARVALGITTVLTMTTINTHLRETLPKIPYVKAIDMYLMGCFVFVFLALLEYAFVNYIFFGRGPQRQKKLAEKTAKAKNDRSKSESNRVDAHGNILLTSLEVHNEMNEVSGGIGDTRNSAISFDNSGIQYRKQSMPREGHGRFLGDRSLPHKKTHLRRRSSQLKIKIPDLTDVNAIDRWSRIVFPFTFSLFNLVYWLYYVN
T1 sequence (P18507 40-467 limits assumed): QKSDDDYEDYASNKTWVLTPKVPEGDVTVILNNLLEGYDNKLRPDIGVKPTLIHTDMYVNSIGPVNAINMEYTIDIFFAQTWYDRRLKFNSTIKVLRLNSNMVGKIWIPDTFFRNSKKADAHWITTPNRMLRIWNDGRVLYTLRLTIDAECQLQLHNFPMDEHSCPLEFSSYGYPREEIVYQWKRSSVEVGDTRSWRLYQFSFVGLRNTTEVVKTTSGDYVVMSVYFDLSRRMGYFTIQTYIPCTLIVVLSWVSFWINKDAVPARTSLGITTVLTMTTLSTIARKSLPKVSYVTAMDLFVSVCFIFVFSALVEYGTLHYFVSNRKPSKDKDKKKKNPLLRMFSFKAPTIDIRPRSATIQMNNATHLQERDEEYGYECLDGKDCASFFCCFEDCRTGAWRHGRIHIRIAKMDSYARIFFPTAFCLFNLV

As for `CC(C)(O)c1cnn2c(-c3ccc(F)c(-c4c(F)cccc4C#N)c3)cnc2n1` [TPA023B, 6,2′-difluoro-5′-[3-(1-hydroxy-1-methylethyl)imidazo[1,2-b][1,2,4]triazin-7-yl]biphenyl-2-carbonitrile], the “potentiation of GABA-induced currents” value in series [1] is on record as “only very weak potentiating effects”. Besides, the “motor coordination in the rotarod assay” value in series [2] was “did not reduce motor coordination”. In series [3], the “amplitude of GABA-IPSCs” value is listed as “did not affect the amplitude” and the “prolongation of the decay of GABA-IPSCs” value was determined as 43±10%. In addition, the “activity at the benzodiazepine binding site (potentiation of GABA-induced currents)” value in series [4] is “partial agonistic activity”. Besides, the “tolerance development to the antipruritic effects” value in series [5] (1 mg/kg i.p. for nine consecutive days, d/d vs v/d) is reported as “exclude tolerance development”. In addition, in series [5] (1 mg/kg i.p. on day 18, 15 to 210 min after injection), the “scratching bouts directed at the nape of the neck vs vehicle” value was “significant reduction in scratching bouts”. Moreover, in series [5] (1 mg/kg i.p. on day 28 after vehicle or 1 mg/kg once daily for nine consecutive days), the “scratching bouts on day 28 vs vehicle, independent of pretreatment” value is reported as “significant reduction in scratching bouts”.
